Experiments:
[1] = target: T1, tLRAT (Homo sapiens, UniProt O95237); assay: Isomeric preference of the mRPE65/tLRAT mediated esterification of retinols; assay type: biochemical; details: compared to vitamin A; 0.02 μM mRPE65, 5 μM tLRAT
T1 construct: This form of LRAT has the two N and C-terminal transmembrane domains of LRAT truncated; made in house
T1 sequence (O95237 31-196 limits assumed): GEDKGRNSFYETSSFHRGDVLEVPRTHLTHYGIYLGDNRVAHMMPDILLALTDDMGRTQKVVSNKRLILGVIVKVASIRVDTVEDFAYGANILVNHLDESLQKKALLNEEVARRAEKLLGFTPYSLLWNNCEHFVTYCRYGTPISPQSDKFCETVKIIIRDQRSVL
Description: Isomeric preference of the mRPE65/tLRAT mediated esterification of retinols: The effect of mRPE65 on the processing of 11-cis- and all-trans-retinols was determined by monitoring the formation of tLRAT catalyzed retinyl esters from added all-trans-retinol [11,12-^3H2], 11-cis-retinol [15-^3H] and mRPE65. The reaction mixture (volume 0.1 mL) contains 100 mM Tris (pH 8.4), 5 μM of tLRAT 0.3% CHAPS, 1 mM dithiothreitol and 0.2 μM of all-trans-retinol [11,12-^3H2] or 11-cis-retinol [15-^3H] and mRPE65 ([…] 200 μM/0.4% DPPC/BSA was incubated for 10 min at room temperature. After 10 min the reaction was quenched with 500 μL methanol, 100 μL of water and 500 μL of hexane. The amount of retinyl palmitate formed, as determined by normal phase-HPLC, was used as a measure of activity. Each experiment was done in triplicate, and the data points used are an average of these three points. The standard error was presented as error bars.
11-cis-retinol, the direct product of IMH action, is also esterified (FIG. 12A). […] (2) all-trans-retinol (2 μM) and mRPE65 (0.02 μM). (3) 11-cis-retinol (2 μM) and DPPC/BSA (250 μM/0.4%). (4) all-trans-retinol (2 μM) and DPPC/BSA (250 μM/0.4%). All reaction mixtures contain 100 mM Tris pH 8.4, 1 mM dithiothreitol, 1 mM EDTA and 5 μM tLRAT.

[2] = system: mRPE65 / IMH activity in RPE membranes; assay: Effect of 11-cis-retinol mediated depalmitoylation of mRPE65 on generation of 11-cis-retinol in RPE membranes; assay type: biochemical, bovine; details: RPE membranes pretreated with 10 μM, then UV and vitamin A
Description: Effect of 11-cis-retinol mediated depalmitoylation of mRPE65 on the generation of 11-cis-retinol: To 1 mL of buffered suspension of RPE membranes (100 mM Tris pH 8.0, 80 μg of protein) was added 10 μM of 11-cis-retinol and incubated at room temp. for 45 min. A control reaction mixture without 11-cis-retinol was also incubated at room temperature for 45 min. At the end of the 45 min incubation, the reaction mixtures were exposed to UV light (354 nm) for 10 min to destroy the 11-cis-retinoids. All-trains-retinol [11-12-^3H2] (0.1 μM) was then added to the reaction mixtures (100 mM Tris pH 8.0, 80 μg of RPE protein 5% BSA and 0.1 μM all-trans-retinol [11-12-^3H2], and incubated at 37° C. 100 μL aliquot of the reactions were quenched after 0, 5, 10, 15, 20, 30, 45, 60, 90, 120 and 150 min by the addition of 500 μL methanol after which 100 μL of H2O was added, and 500 μl hexane (containing butylated hydroxy toluene at 1 mg/mL) was added to effect extraction of the retinoids. The retinoids were analyzed as previously described (Winston and Rando 1998). The amount of 11-cis-retinol formed was used as a measurement of IMH activity. All experiments were performed in triplicate and the average values of these measurements were used for analysis. […]

[3] = target: T1, tLRAT; details: comparison value; no observable turnover under the same conditions; read-out: KM as acyl donor in the LRAT reaction; cited from earlier work
[4] = system: 11-cis-retinol biosynthesis (IMH activity) in retinal pigment epithelial membrane system; assay: Effect on 11-cis-retinol biosynthesis (IMH activity) in RPE membranes; assay type: biochemical, bovine; details: membranes pre-incubated with vitamin A before inhibitor; 60 μM; data not shown
Description: A control reaction mixture without any inhibitor was also incubated at room temperature for 15 min. At the end of the min incubation, all-trans-retinol [11-12-^3H2] (0.2 μM) was added to the reaction mixtures (100 mM Tris pH 8.0, […] of RPE protein, 0.2% BSA 100 μM of DPPC, 1 mM of DTT and 0.2 μM all-trans-retinol [11-12-^3H2]) and incubated at room temperature for 30 min. At the end of this 30 minutes of incubation, an aliquot of the reactions were quenched to verify the equal addition of all-trans-retinol [11,12-^3H2] and the effect of these inhibitors on LRAT. After this the control reaction mixture was incubated with atRA (60 & 6 μM), 13cRA (60 & 6 μM) or 4-HPR (60 & 6 μM) for 15 min. Now all the reaction mixtures were incubated with 30 μM of apo-rCRALBP (100 mM Tris pH 8.0, 7.7 μg of RPE protein, 0.2% BSA 100 μM of DPPC, 1 mM of DTT 30 μM apo-rCRALBP and 0.2 μM all-trans-retinol [11-12-^3H2]) at 37° C. for 30 minutes. At the end of this incubation period the 200 μL reaction mixture was quenched by the addition of 750 μL ice cold methanol after which 100 μL of 1M sodium chloride solution was added, and 500 μl hexane (containing butylated hydroxy toluene at 1 mg/mL) was added to effect extraction of the retinoids. The retinoids were analyzed as previously described (27). The amount of 11-cis-retinol formed was used as a measurement of IMH activity. All experiments were performed in triplicate and the average values of these measurements were used for analysis.
A control reaction mixture without any inhibitor was also incubated at room temperature for 15 min. At the end of the min incubation, all-trans-retinol [11-12-^3H2] (0.2 μM) was added to the reaction mixtures (100 mM Tris pH 8.0, 76.7 μg of RPE protein, 0.2% BSA 100 μM of DPPC, 1 mM of DTT and 0.2 μM all-trans-retinol [11-12-^3H2]) and incubated at room temperature for 30 min. […] The retinoids were analyzed as previously described (27). […]

[5] = target: T2, RPE65 (Bos taurus, UniProt Q28175); assay: Competitive binding with 3H-all-trans-retinyl palmitate to RPE65 (buffer exchange); parameters: species or system bovine; details: 6 μM retinoic acid, 0.5 μM RPE65, 0.65 μM 3H-all-trans-retinyl palmitate
T2 construct: Frozen bovine eyecups devoid of retinas were purchased from W. L. Lawson Co; tissue W. L. Lawson Co; host or cells: bovine eyecups (retinal pigment epithelium)
T2 sequence (Q28175 whole entry): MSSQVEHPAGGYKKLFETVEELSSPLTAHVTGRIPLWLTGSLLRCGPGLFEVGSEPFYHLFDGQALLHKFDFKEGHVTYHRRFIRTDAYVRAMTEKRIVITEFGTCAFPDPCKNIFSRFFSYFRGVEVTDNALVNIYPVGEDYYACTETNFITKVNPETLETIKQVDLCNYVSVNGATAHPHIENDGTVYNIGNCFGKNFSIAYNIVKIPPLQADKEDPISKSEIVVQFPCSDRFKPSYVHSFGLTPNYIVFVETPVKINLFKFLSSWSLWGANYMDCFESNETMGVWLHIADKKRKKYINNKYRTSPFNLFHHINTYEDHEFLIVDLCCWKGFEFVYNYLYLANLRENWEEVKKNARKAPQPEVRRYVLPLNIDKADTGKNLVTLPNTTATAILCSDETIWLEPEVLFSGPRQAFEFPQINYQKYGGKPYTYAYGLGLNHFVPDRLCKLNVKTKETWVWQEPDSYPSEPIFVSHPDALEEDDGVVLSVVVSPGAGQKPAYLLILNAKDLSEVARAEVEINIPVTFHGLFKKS
Description: Competitive binding of retinoic acid (all-trans and 13-cis) and all-trans-retinyl palmitate to RPE65: Buffer exchange experiments were performed to investigate the abilities of the retinoic acids (all-trans and 13-cis) to displace all-trans-retinyl palmitate binding from RPE65. To RPE65 (0.5 μM) (PBS, 1% CHAPS, pH 7.4), was added 6 μM of retinoic acid (all-trans and 13-cis) and incubated at 4° C. for 30 min. A control sample of RPE65 was incubated minus retinoic acids at 4° C. for 30 min. At the end of this incubation, the samples were incubated for 30 min with ^3H-all-trans-retinyl palmitate (0.65 ∥M, 20.31. Ci/mmol). At the end of this incubation period the buffer (PBS-1% CHAPS) was exchanged 10^4 fold with a Centricon 30K MWCO filter. The sample retained and the buffer flow through were counted on a liquid scintillation counter, to measure the amount of ^3H-all-trans-retinyl palmitate retained.
Competitive binding of retinoic acid (all-trans and 13-cis) and all-trans-retinyl palmitate to RPE65: Buffer exchange experiments were performed to investigate the abilities of the retinoic acids (all-trans and 13-cis) to displace all-trans-retinyl palmitate binding from RPE65. […] The sample retained and the buffer flow through were counted on a liquid scintillation counter, to measure the amount of ^3H-all-trans-retinyl palmitate retained. […]

## CC1=C(/C=C/C(C)=C/C=C\C(C)=C\CO)C(C)(C)CCC1 [11-cis-retinol]
[1]
  substrate preference in tLRAT/mRPE65 mediated esterification (palmitoylation): superior substrate
[2]
  effect of pretreatment on 11-cis-retinol synthesis: distinct lag period before product synthesis occurs

## CCCCCCCCCCCCCCCC(=O)OC[C@H](COP(=O)([O-])OCC[N+](C)(C)C)OC(=O)CCCCCCCCCCCCCCC [DPPC, dipalamitoyl phosphatidylcholine]
[3]
  Km: 1400 nM

## CC1=C(/C=C/C(C)=C/C=C/C(C)=C/C(=O)O)C(C)(C)CCC1 [all-trans-retinoic acid]
[4]
  inhibition of 11-cis-retinol formation: not susceptible to inhibition
[5]
  competition with 3H-all-trans-retinyl palmitate binding to RPE65: competes with the binding
